Measurements taken from patent publication US7192929B2, “Peptides effective in the treatment of tumors and other conditions requiring the removal or destruction of cells” (Nymox Corporation, priority 2001, dated 2007).
Ends that are not written are not given here.

Assays:
[1] = test system: muscle tissue, subcutaneous connective tissue, and dermis; assay type: in vivo, rat; details: for effect on tissue at sites of injection (histopathology): normal rats, skin, subcutaneous and skeletal muscle injection, in saline, 0.1–1 mg/mL, sacrificed at 24 hours
Method: Four normal rats were injected in the skin and subcutaneously, each in four different foci, and in extremity skeletal muscle, each in two different foci, with NTP peptide #7 in saline in quantities of […] at concentrations of 0.1–1 mg/mL delivered from plastic syringes through stainless steel 26 gauge needles.
The individual foci of infiltration were excised, fixed in 10% formalin, embedded in paraffin, and stained and examined by standard histopathological methods.
The controls received saline alone.
Rats were injected in the skin and subcutaneously as in Example 1 above, except they were injected with NTP peptide #14.
Tissues were excised, fixed in 10% formalin, embedded in paraffin, and stained and examined by standard histopathological methods.
The controls were the same as Example 1.

[2] = test system: glioma and neuroblastoma cell cultures; details: cited from earlier work
[3] = test system: normal rodent muscle tissue, subcutaneous connective tissue, and dermis; details: cited from earlier work
[4] = test system: human and non-human origin tumors, including mammary carcinoma, skin carcinoma and papilloma, colon carcinoma, glioma of brain; details: variety of human and non-human origin tumors in rodent models; cited from earlier work
[5] = test system: prostate; assay: Intraprostatic infusion in rats, histology of prostate gland; assay type: in vivo, rat; details: 300 μl of 1 mg/mL in PBS pH 7.4 (1.0 mg/kg), sacrificed after 72 hours
Method: Four rats were anesthetized with ether and given NTP peptide #7 by intraprostatic infusion. The injections consisted of 300 μl of NTP peptide #7 1 mg/mL in PBS pH 7.4. (1.0 mg/kg). Controls received injections of PBS alone or no injection. Rats were painlessly sacrificed after 72 hours. Prostate glands were dissected, fixed in 10% buffered formalin for 24 hours, embedded in paraffin, sectioned, and stained with H & E. For each animal the entire prostate gland was embedded and sectioned. All stained sections were examined histologically.
Normal rats were injected in the prostate as in the above Example 2, except they were injected with NTP peptide #17. Rats were painlessly sacrificed after 72 hours and their prostate glands were examined as in Example 2.

Row | Substance | effect on tissue at sites of injection (histopathology) [1] | effect on prostate tissue at sites of injection (histology) [5] | other results
1 | WDYRRFIFNFL [NTP peptide #14, …; AD7c-NTP p241–245 + AD7c-NTP p197–202] | cell death and necrosis of tissue at the injection sites |  | 
2 | AD7c-NTP protein: ˜41 kD membrane associated phosphoprotein, a neural thread protein; sequence in FIG. 1 |  |  | causing cell death in vitro [2]: effective agent for causing cell death; causing cell death in vivo in normal tissue [3]: effective agent for causing cell death; causing cell death in vivo in tumors [4]: effective agent for causing cell death
3 | LSLPSSWDYG [NTP peptide #7] | necrosis of tissue at the injection sites | necrosis of tissue at the injection sites with loss of glandular epithelium, flattening and atrophy | spread of necrosis beyond the site of injection ([1]; rat, in vivo, sc): did not appear to spread far beyond the site of injection
4 | PASASPVAGITGM [NTP peptide #17, …; AD7c-NTP p31–43] |  | significant cell loss and atrophy in the prostate | 
